Assays:
Type in all cases: in vivo
[1] = tested on: Echinochloa crus-galli (ECHCG); assay: Test 1A glasshouse assay, pre-emergence herbicidal activity; details: 312 h, 250 g/ha, 13 days after application, read-out: Pre-Emergence Herbicidal Activity (% Phytotoxicity) ECHCG
Description: Seeds of a variety of test species are sown in standard soil (usually sandy soil) in pots. After cultivation for one day (pre-emergence) or after 8 days cultivation (post-emergence) under controlled conditions in a glasshouse (at 24/16° C., day/night; 14 hours light; 65% humidity), the plants are sprayed with an aqueous spray solution derived from the formulation of the technical active ingredient (compound) in acetone/water (50:50) solution containing 0.5% Tween 20 (polyoxyethylene sorbitan monolaurate, CAS RN 9005-64-5). The test plants are then grown under controlled conditions in a glasshouse (at 24/16° C., day/night; 14 hours light; 65% humidity) and watered twice daily. 13 days after application of the test compounds, for pre- and post-emergence, the test is evaluated visually for percentage phytotoxicity to each plant (where 100%=total damage to plant; 0%=no damage to plant).
Alopecurus myosuroides (ALOMY), Setaria faberi (SETFA), Echinochloa crus-galli (ECHCG), Amaranthus retroflexus (AMARE), and Abutilon theophasti Medik. (ABUTH, common English name “velvetleaf”). Of these, Alopecurus myosuroides (ALOMY), Setaria faberi (SETFA), and Echinochloa crus-galli (ECHCG) are grassy monocotyledonous weeds. […]

[2] = tested on: Brachiaria plantaginea (BRAPL); assay: Biological Example 3 (Test 2 glasshouse assay), post-emergence herbicidal activity
Description: (§1) Seeds of a variety of monocotyledonous and dicotyledonous test plants are sown in standard soil in pots. The plants are cultivated for one day (for pre-emergence) or for about 12 days (range=10-13 days) (for post-emergence) under controlled conditions in a glasshouse (warm climate species at 24/18° C., cool climate species at 20/16° C., both at day/night; 16 hours light; 65% humidity).
(§2) An “instant formulation”, known as the “IF50”, containing 50 g/litre (i.e. 5% w/v) of the “technical” (i.e. unformulated) active ingredient is prepared by dissolving the active ingredient in a mixture of organic solvents and emulsifier, details of which are provided in the Table below. This IF50 is then mixed with a small, variable amount of acetone to aid dissolution, before addition of a 0.2% v/v aqueous solution of the adjuvant X-77 (which is a mixture of alkyl aryl polyoxyethylene glycols and free fatty acids in isopropanol, CAS Registry number 11097-66-8), as the aqueous diluent, to form an aqueous spray solution which contains a predetermined concentration of the active ingredient (which varies depending on the application rate of the active ingredient to the plants) and 0.2% v/v of the adjuvant X-77. This aqueous spray solution is then sprayed onto the plants, after one day's cultivation (for pre-emergence) or after about 12 days' cultivation (for post-emergence).
(§3) The test plants are then grown on, in a glasshouse (greenhouse) under controlled conditions (at either 24/18° C. or 20/16° C. (day/night) as mentioned above; 16 hours light; 65% humidity) and are watered twice daily. Either 15 days after application of the test compound (15 DAA) (for post-emergence), or 20 days after application of the test compound (20 DAA) (for pre-emergence), the test plants are evaluated visually, and an assessed percentage phytotoxicity score is given for each compound application on each plant species (where 100%=total damage to plant; 0%=no damage to plant).
(§4) Cool climate crop plants: Triticum aestivum (TRZAW, winter wheat), Brassica napus (BRSNN, rape, also called oilseed rape or rapeseed), Beta vulgaris (BEAVA, sugar beet). Warm climate crop plants: Glycine max (GLXMA, soybean). Cool climate (“cool season”) grassy monocotyledonous weeds: Alopecurus myosuroides (ALOMY), Avena fatua (AVEFA), Lolium perenne (LOLPE). Warm climate (“warm season”) grassy monocotyledonous weeds: Setaria faberi (SETFA), SORVU (Sorghum bicolor (L.) Moench ssp. Bicolor, or Sorghum vulgare Pers.), Digitaria sanguinalis (DIGSA), Echinochloa crus-galli (ECHCG), and Brachiaria plantaginea (BRAPL).

[3] = tested on: Brassica napus (BRSNN, rape); assay: as above
Description: as §1, §2, §3, §4

[4] = tested on: Alopecurus myosuroides (ALOMY); assay: as above
Description: as §1, §2, §3, §4

[5] = tested on: Echinochloa crus-galli (ECHCG); assay: as above
Description: as §1, §2, §3, §4

Lolium perenne (LOLPE) = assay: as above
Description: as §1, §2, §3, §4

[6] = tested on: Triticum aestivum (TRZAW, winter wheat); assay: as above
Description: as §1, §2, §3, §4

[7] = tested on: SORVU (Sorghum bicolor (L.) Moench ssp. Bicolor, or Sorghum vulgare Pers.); assay: as above
Description: as §1, §2, §3, §4

[8] = tested on: Digitaria sanguinalis (DIGSA); assay: as above
Description: as §1, §2, §3, §4

[9] = tested on: Beta vulgaris (BEAVA, sugar beet); assay: as above
Description: as §1, §2, §3, §4

[10] = tested on: Glycine max (GLXMA, soybean); assay: as above
Description: as §1, §2, §3, §4

Setaria faberi (SETFA) = assay: as above
Description: as §1, §2, §3, §4

CC#Cc1cc(C)c(C2C(=O)N(C)N(C)C2=O)c(C)c1 [Compound A1]
inhibition at 250 g/ha [1]: 30%
Post-Emergence Herbicidal Activity (Percentage Phytotoxicity) BRAPL ([2]; 30 g/ha (rate by row order)): 70%
Post-Emergence Herbicidal Activity (Percentage Phytotoxicity) BRAPL ([2]; 125 g/ha (rate by row order)): 100%
Post-Emergence Herbicidal Activity (Percentage Phytotoxicity) BRSNN ([3]; 30 g/ha): 70%
Post-Emergence Herbicidal Activity (Percentage Phytotoxicity) BRSNN ([3]; 125 g/ha): 70%
Post-Emergence Herbicidal Activity (Percentage Phytotoxicity) ALOMY ([4]; 30 g/ha): 10%
Post-Emergence Herbicidal Activity (Percentage Phytotoxicity) ALOMY ([4]; 125 g/ha): 70%
Post-Emergence Herbicidal Activity (Percentage Phytotoxicity) ECHCG ([5]; 30 g/ha (rate by row order)): 70%
Post-Emergence Herbicidal Activity (Percentage Phytotoxicity) ECHCG ([5]; 125 g/ha (rate by row order)): 90%
Post-Emergence Herbicidal Activity (Percentage Phytotoxicity) LOLPE (Lolium perenne (LOLPE); 30 g/ha): 30%
Post-Emergence Herbicidal Activity (Percentage Phytotoxicity) LOLPE (Lolium perenne (LOLPE); 125 g/ha): 80%
Post-Emergence Herbicidal Activity (Percentage Phytotoxicity) TRZAW ([6]; 30 g/ha): 30%
Post-Emergence Herbicidal Activity (Percentage Phytotoxicity) TRZAW ([6]; 125 g/ha): 80%
Post-Emergence Herbicidal Activity (Percentage Phytotoxicity) SORVU ([7]; 30 g/ha (rate by row order)): 70%
Post-Emergence Herbicidal Activity (Percentage Phytotoxicity) SORVU ([7]; 125 g/ha (rate by row order)): 80%
Post-Emergence Herbicidal Activity (Percentage Phytotoxicity) DIGSA ([8]; 30 g/ha (rate by row order)): 80%
Post-Emergence Herbicidal Activity (Percentage Phytotoxicity) DIGSA ([8]; 125 g/ha (rate by row order)): 90%
Post-Emergence Herbicidal Activity (Percentage Phytotoxicity) BEAVA ([9]; 30 g/ha): 0%
Post-Emergence Herbicidal Activity (Percentage Phytotoxicity) BEAVA ([9]; 125 g/ha): 10%
Post-Emergence Herbicidal Activity (Percentage Phytotoxicity) GLXMA ([10]; 30 g/ha): 30%
Post-Emergence Herbicidal Activity (Percentage Phytotoxicity) GLXMA ([10]; 125 g/ha): 70%

CC#Cc1cc(C)c(C2C(=O)N3CCCCCN3C2=O)c(C)c1 [Compound A23, 2-(2,6-dimethyl-4-prop-1-ynyl-phenyl)-6,7,8,9-tetrahydro-5H-pyrazolo[1,2-a]diazepine-1,3-dione]
inhibition at 250 g/ha [1]: 90%
Post-Emergence Herbicidal Activity (Percentage Phytotoxicity) BRAPL ([2]; 30 g/ha (rate by row order)): 0%
Post-Emergence Herbicidal Activity (Percentage Phytotoxicity) BRAPL ([2]; 125 g/ha (rate by row order)): 10%
Post-Emergence Herbicidal Activity (Percentage Phytotoxicity) BRSNN ([3]; 30 g/ha): 30%
Post-Emergence Herbicidal Activity (Percentage Phytotoxicity) BRSNN ([3]; 125 g/ha): 50%
Post-Emergence Herbicidal Activity (Percentage Phytotoxicity) ALOMY ([4]; 30 g/ha): 0%
Post-Emergence Herbicidal Activity (Percentage Phytotoxicity) ALOMY ([4]; 125 g/ha): 50%
Post-Emergence Herbicidal Activity (Percentage Phytotoxicity) ECHCG ([5]; 30 g/ha (rate by row order)): 0%
Post-Emergence Herbicidal Activity (Percentage Phytotoxicity) ECHCG ([5]; 125 g/ha (rate by row order)): 20%
Post-Emergence Herbicidal Activity (Percentage Phytotoxicity) LOLPE (Lolium perenne (LOLPE); 30 g/ha): 0%
Post-Emergence Herbicidal Activity (Percentage Phytotoxicity) LOLPE (Lolium perenne (LOLPE); 125 g/ha): 40%
Post-Emergence Herbicidal Activity (Percentage Phytotoxicity) SETFA (Setaria faberi (SETFA); 30 g/ha (rate by row order)): 0%
Post-Emergence Herbicidal Activity (Percentage Phytotoxicity) SETFA (Setaria faberi (SETFA); 125 g/ha (rate by row order)): 70%
Post-Emergence Herbicidal Activity (Percentage Phytotoxicity) TRZAW ([6]; 30 g/ha): 0%
Post-Emergence Herbicidal Activity (Percentage Phytotoxicity) TRZAW ([6]; 125 g/ha): 50%
Post-Emergence Herbicidal Activity (Percentage Phytotoxicity) SORVU ([7]; 30 g/ha (rate by row order)): 50%
Post-Emergence Herbicidal Activity (Percentage Phytotoxicity) SORVU ([7]; 125 g/ha (rate by row order)): 70%
Post-Emergence Herbicidal Activity (Percentage Phytotoxicity) DIGSA ([8]; 30 g/ha (rate by row order)): 30%
Post-Emergence Herbicidal Activity (Percentage Phytotoxicity) DIGSA ([8]; 125 g/ha (rate by row order)): 70%
Post-Emergence Herbicidal Activity (Percentage Phytotoxicity) BEAVA ([9]; 30 g/ha): 10%
Post-Emergence Herbicidal Activity (Percentage Phytotoxicity) BEAVA ([9]; 125 g/ha): 40%
Post-Emergence Herbicidal Activity (Percentage Phytotoxicity) GLXMA ([10]; 30 g/ha): 0%
Post-Emergence Herbicidal Activity (Percentage Phytotoxicity) GLXMA ([10]; 125 g/ha): 70%
